The text below walks through data of patent US20030087906A1, “NITROGEN SUBSTITUTED BIARYL PURINE DERIVATIVES AS POTENT ANTIPROLIFERATIVE AGENTS” (priority 2001, published 2003).

For orientation: GI50 means the concentration at which growth is held to half of that of the control. A lower GI50 goes with greater sensitivity of the cells.

The subject of one assay is implanted tumors. Briefly: Efficacy study: delay in growth of implanted tumors, regressions, tumor-free survivors. Type of assay: in vivo, athymic mice. The protocol:
The following data in Table 9 summarize the in vivo properties of several compounds of the current invention. The protocol for the experiment is as follows. The dose-range finding study consists of four groups of three athymic mice each (four dose levels.) The compound is administered on the basis of individual animal body weight. The route is intraperitoneal (IP) and the treatment schedule is daily for 14 days (qd×14) or once every 4 days for 12 days (q4d×3).
The efficacy study consists of three compound-treated groups (six mice/group), a positive control-treated group (six mice), and a vehicle-treated control group of 12 mice. Test compounds were administered IP under the treatment schedules listed above (qd×14 or q4d×3), whereas the positive control agent (Taxol) was administered intravenously (IV) at a dosage level of 15 mg/kg/dose for five consecutive days (qd×5). All agents were administered on the basis of individual animal body weight. Treatment began when the implanted tumors were approximately 100 mg in size (range of 65 to 200 mg). The mice were observed daily for survival. Each tumor was measured by caliper in two dimensions and converted to tumor mass using the formula for a prolate ellipsoid (a×b^2/2) and assuming unit density. Tumor measurements and animal body weights were recorded twice weekly. Antitumor activity was assessed by the delay in tumor growth of the treated groups in comparison to the vehicle-treated control group, partial and complete regressions, and tumor-free survivors.

The test system of assay [1] is 60-human transformed cell lines. The experiment in a line: NCI 60-cell line growth inhibition assay (whole panel). Type of assay: cell-based. The following applies: range over 60 cell lines.

In the case of `CC(C)n1cnc2c(NCc3ccc(-c4ccsc4)cc3)nc(N[C@H]3CC[C@H](N)CC3)nc21` [Compound 12], the “T-C” value in the assay with implanted tumors (0.27 mg/kg IP q4d × 3) came out at 1.2 days; with implanted tumors (0.4 mg/kg IP q4d × 3), 0.2 days; in the assay with implanted tumors (0.6 mg/kg IP q4d × 3), 0.3 days. Also, the Tumor free/total in the assay on implanted tumors (0.27 mg/kg IP q4d × 3), in the assay with implanted tumors (0.4 mg/kg IP q4d × 3) and with implanted tumors (0.6 mg/kg IP q4d × 3) was 0/6 each time.
`Cn1cnc2c(NCc3ccccc3)nc(NCCO)nc21` [Olomoucine, reference compound] registered a 50% growth inhibitory concentration (GI50) in assay [1] of 20 to 100 µM.
